The values below come from patent US20080221205A1, “FURAN DERIVATIVES FOR PREVENTING AND CURING OSTEOPOROSIS AND PHARMACEUTICAL COMPOSITIONS CONTAINING THE SAME” (priority 2002, published 2008).

This experiment deals with osteoclast formation. Nature of the experiment: Inhibition rate of furan derivatives versus osteoclast formation (TRAP staining). The format is cell-based, mice. The conditions noted are these: TRAP-positive multinucleated cells, untreated control set as 100%. As to the method: First, bone marrow cells were isolated, as follow. After sacrificing 7-9 week female mice by cervical dislocation, femur and tibia were excised aseptically while removing attached soft tissues. After cutting both ends of long bones, 1 ml of an enzyme solution, containing 0.1% collagenase (Gibco), 0.05% trypsin and 0.5 mM EDTA (Gibco), was injected to the bone marrow cavity at one end using a syringe with a 26-guage needle, and bone marrow was then collected. After shaking the recovered bone marrow for 30 min, bone marrow cells were collected, and cultured in α-minimum essential medium (α-MEM) supplemented with 10% FBS for 24 hrs. Then, non-adherent cells were collected, which are osteoclast pregenitors, aliquotted onto culture plates at a density of 2×10^5 cells per well, and cultured for 8 days in α-MEM supplemented with 20 ng/ml of macrophage-colony stimulating factor (M-CSF, Peprotech, USA) and 30 ng/ml RANKL (Peprotech, USA). During the 8 days of culturing, the cells were treated with the Compound 1. Thereafter, osteoclast formation was investigated by fixing the cultured cells and then carrying out TRAP staining, as described in the following Experimental Example 2.2. In addition, resorption activity of osteoclasts was investigated by measuring the absorption area after removing osteoclasts in cultures in calcium phosphate-coated plates, as described in Experimental Example 2.3, below.
After cell culture, the adherent cells were washed with PBS, and TRAP staining was performed, as follows. After being fixed with citrate-acetate-formaldehyde for 5 min, the cells were incubated for 1 hr in acetate buffer (prewarmed at 37° C., pH 5.0) containing naphthol AS-BI phosphate, fast Garnet GBC and 7 mM tartrate buffer (pH 5.0). TRAP-positive multinucleated cells having 3 or more nuclei were considered as osteoclasts.
Osteoclast pregenitor cells were isolated, and their differentiation to mature osteoclasts was induced, according to the same method as in the Experimental Example 2-1, while treated with each of the furan derivatives of the present invention. According to the same method as in the Experimental Example 2-2, TRAP staining performed, and TRAP-positive multinucleated cells were counted. An inhibition rate of each furan derivative against osteoclast formation was expressed as percentage, wherein the number of stained cells in a control not treated the furan derivative was arbitrarily set as 100% (Tables 14 to 16).

As to `Cc1ccc(F)c(NC(=O)c2ccc(COc3ccc(C)cc3[N+](=O)[O-])o2)c1` [Compound 155], the “Inhibition rate against osteoclast formation, %” value (shortened to “Inhibition rate … %”) worked out at 0% (0.1 μM) and 0% (1 μM).
For `COc1ccc(NC(=O)c2ccc(COc3ccc(Cl)c(C)c3)o2)cc1` [Compound 150], the “Inhibition rate … %” value (0.1 μM) amounted to 0% and the “Inhibition rate … %” value (1 μM) is recorded as 0%.
Turning to `O=C(c1ccc(COc2ccccc2Br)o1)N1CCCCCC1` [Compound 128], the “Inhibition rate … %” value (1 μM) is on record as 0%.
As for `O=C(Nc1cc(F)ccc1F)c1ccc(COc2ccccc2Cl)o1` [Compound 161], the “Inhibition rate … %” value came to 0% (0.1 μM) and 0% (1 μM).
Regarding `CCCc1ccc(OCc2ccc(C(=O)Nc3cc(Cl)ccc3Cl)o2)cc1` [Compound 170], the “Inhibition rate … %” value reads like this: (0.1 μM) 0%; (1 μM) 0%.
As to `O=C(O)c1ccc(COc2ccc(F)cc2)o1` [Compound 102], the “Inhibition rate … %” value was determined as 0% (0.1 μM) and 0% (1 μM).
Consider `O=C(Nc1cccc(Br)c1)c1ccc(COc2ccc(F)cc2)o1` [Compound 140], for which the “Inhibition rate … %” value is 0% (0.1 μM) and 0% (1 μM).
`O=C(Nc1ccc(F)cc1F)c1ccc(COc2c(F)c(F)cc(F)c2F)o1` [Compound 185]: the “Inhibition rate … %” value came to 0% (0.1 μM) and 0% (1 μM).
Take `O=C(Nc1ccc(F)cc1)c1ccc(COc2cccc(Cl)c2)o1` [Compound 141]: the “Inhibition rate … %” value is, setting by setting: (0.1 μM) 0%; (1 μM) 0%.
`COc1ccc(NC(=O)c2ccc(COc3ccc(F)cc3)o2)c([N+](=O)[O-])c1` [Compound 149]: the “Inhibition rate … %” value (0.1 μM) is listed as 0%.
In the case of `CCCc1ccc(OCc2ccc(C(=O)O)o2)cc1` [Compound 100], the “Inhibition rate … %” value runs as follows: (0.1 μM) 0%; (1 μM) 0%.
In the case of `O=C(Nc1ccc(I)cc1)c1ccc(COc2ccccc2Br)o1` [Compound 190], the “Inhibition rate … %” value came out at 0% (0.1 μM) and 0% (1 μM).
In the case of `O=C(Nc1ccc(F)c(F)c1)c1ccc(COc2ccc(I)cc2)o1` [Compound 143], the “Inhibition rate … %” value is, setting by setting: (0.1 μM) 0%; (1 μM) 0%.
Take `CC(C)c1ccc(OCc2ccc(C(=O)O)o2)cc1` [Compound 114]: the “Inhibition rate … %” value is, setting by setting: (0.1 μM) 0%; (1 μM) 0%; (10 μM) 4.2%.
With `COC(=O)c1ccc(CN(C)C)o1` [Compound 85], the “Inhibition rate … %” value reads like this: (0.1 μM) 0%; (1 μM) 0%.
